# Reference: patent publication US10844044B2 (Vanderbilt University, priority 2018, dated 2020)
# pKi: −log10 of the molar value.
# Test system: MV4:11 human cancer cell lines
# Assay: Anti-proliferative activity, CellTiter-Glo viability assay, 7 day protocol
# Format: cell-based
# Settings: Homo sapiens, MV4-11, 168 h, MV4:11 cells, 7 day incubation, read-out: GI50 on cellular proliferation of MV4:11 human cancer cell lines
# Description: Viability assays are performed by dispensing […] into each well of an opaque 384-well plate and adding compounds at the indicated concentrations in a final volume of 32 μL and a final concentration of DMSO of 0.1% for all samples. After a set incubation period, 7 day protocol, the viability of cells in each well is assessed using the CellTiter-Glo assay (Promega), read on a GloMax 96 Microplane Luminometer (Promega). Serial dilutions of each cell type are included in all assays to generate standard curves and determine assay measurements are taken within the dynamic range of the instrument. GI50 values are calculated based on three biological replicates, each with three technical replicates. Data are expressed as mean plus/minus S.E.M.
row,SMILES,GI50
1,"COc1cc(CNC(=O)c2cc(Cn3ccoc3=N)cc(-c3cccnc3C(F)(F)F)c2)cc(OC)c1 [Example 244, N-(3,5-Dimethoxybenzyl)-3-((2-iminooxazol-3(2H)-yl)methyl)-5-(2-(trifluoromethyl)pyridin-3-yl)benzamide]",300 nM
2,"Cc1nc(F)ccc1-c1cc(CN2CCCC2=N)cc(C(=O)NCc2ccc(Cl)c(Cl)c2)c1 [Example 331, N-(3,4-Dichlorobenzyl)-3-(6-fluoro-2-methylpyridin-3-yl)-5-((2-iminopyrrolidin-1-yl)methyl)benzamide]",950 nM
3,"Cc1cc([C@H](NC(=O)c2cc(Cn3ccoc3=N)cc(-c3ccc(F)cc3C)c2)C(F)(F)F)ccc1F [Example 231, (S)-4′-Fluoro-5-((2-iminooxazol-3(2H)-yl)methyl)-2′-methyl-N-(2,2,2-trifluoro-1-(4-fluoro-3-methylphenyl)ethyl)-[1,1′-biphenyl]-3-carboxamide]",870 nM
4,"Cc1cc([C@@H](NC(=O)c2cc(Cn3ccn(C)c3=N)cc(-c3ccc(F)cc3C)c2)C2CC2)ccc1F [Example 54, (S)—N-(Cyclopropyl(4-fluoro-3-methylphenyl)methyl)-4′-fluoro-5-((2-imino-3-methyl-2,3-dihydro-1H-imidazol-1-yl)methyl)-2′-methyl-[1,1′-biphenyl]-3-carboxamide]",< 100 nM
5,"Cc1cc([C@@H](NC(=O)c2cc(Cn3ccn(C)c3=N)cc(-c3ccc(F)cc3OC(F)F)c2)C2CC2)ccc1F [Example 73, (S)—N-(cyclopropyl(4-fluoro-3-methylphenyl)methyl)-2′-(difluoromethoxy)-4′-fluoro-5-((2-imino-3-methyl-2,3-dihydro-1-imidazol-1-yl)methyl)-[1,1′-biphenyl]-3-carboxamide]",1800 nM
6,"Cc1cc(F)ccc1-c1cc(Cn2ccn(C)c2=N)cc(C(=O)N[C@@H](C)c2ccc(F)c(C(F)(F)F)c2)c1 [Example 31, (S)-4′-Fluoro-N-(1-(4-fluoro-3-(trifluoromethyl)phenyl)ethyl)-5-((2-imino-3-methyl-2,3-dihydro-1H-imidazol-1-yl)methyl)-2′-methyl-[1,1′-biphenyl]-3-carboxamide]",300 nM
7,"Cc1cc(-c2cc(Cn3ccn(C)c3=N)cc(C(=O)NCc3ccc(Cl)c(Cl)c3)c2)ccn1 [Example 22, N-(3,4-Dichlorobenzyl)-3-((2-imino-3-methyl-2,3-dihydro-1H-imidazol-1-yl)methyl)-5-(2-methylpyridin-4-yl)benzamide]",14000 nM
8,"COc1cc(OC)cc(C(NC(=O)c2cc(Cn3ccoc3=N)cc(-c3cccnc3C(F)(F)F)c2)C2CC2)c1 (stereo not drawn) [Example 245, N-(Cyclopropyl(3,5-dimethoxyphenyl)methyl)-3-((2-iminooxazol-3(2H)-yl)methyl)-5-(2-(trifluoromethyl)pyridin-3-yl)benzamide]",180 nM
9,Cc1cc([C@@H](NC(=O)c2cc(Cn3ccn(C)c3=N)cc(-c3ccc(F)cc3C(F)(F)F)c2F)C2CC2)ccc1F [Example 109],< 100 nM
10,"Cc1ccnc(C(NC(=O)c2cc(Cn3ccn(C)c3=N)cc(-c3ncc(F)cc3C(F)(F)F)c2)C2CC2)c1 (stereo not drawn) [Example 75, N-(Cyclopropyl(4-methylpyridin-2-yl)methyl)-3-(5-fluoro-3-(trifluoromethyl)pyridin-2-yl)-5-((2-imino-3-methyl-2,3-dihydro-1H-imidazol-1-yl)methyl)benzamide]",12000 nM
11,"CCn1cc(-c2cc(CN3CCOC3=N)cc(C(=O)N[C@H](c3ccc(F)c(C)c3)C3CC3)c2)c(C(F)(F)F)n1 [Example 276, (S)—N-(Cyclopropyl(4-fluoro-3-methylphenyl)methyl)-3-(1-ethyl-3-(trifluoromethyl) H-pyrazol-4-yl)-5-((2-iminooxazolidin-3-yl)methyl)benzamide]",< 100 nM
12,"COc1cnccc1-c1cc(Cn2ccn(C)c2=N)cc(C(=O)NCc2ccc(Cl)c(Cl)c2)c1 [Example 23, N-(3,4-Dichlorobenzyl)-3-((2-imino-3-methyl-2,3-dihydro-1H-imidazol-1-yl)methyl)-5-(3-methoxypyridin-4-yl)benzamide]",6200 nM
13,"Cn1nccc1-c1cc(Cn2ccn(C)c2=N)cc(C(=O)NCc2ccc(Cl)c(Cl)c2)c1 [Example 26, N-(3,4-Dichlorobenzyl)-3-((2-imino-3-methyl-2,3-dihydro-1H-imidazol-1-yl)methyl)-5-(1-methyl-1H-pyrazol-5-yl)benzamide]",790 nM
14,"COc1cc(OC)cc(C(NC(=O)c2cc(Cn3ccn(C)c3=N)cc(-c3ncc(F)cc3C(F)(F)F)c2)C2CC2)c1 (stereo not drawn) [Example 74, N-(Cyclopropyl(3,5-dimethoxyphenyl)methyl)-3-(5-fluoro-3-(trifluoromethyl)pyridin-2-yl)-5-((2-imino-3-methyl-2,3-dihydro-1H-imidazol-1-yl)methyl)benzamide]",4500 nM
15,"Cc1cc([C@@H](NC(=O)c2cc(Cn3ccn(C)c3=N)cc(-c3ncc(F)cc3C(F)(F)F)c2)C2CC2)ccc1F [Example 72, (S)—N-(Cyclopropyl(4-fluoro-3-methylphenyl)methyl)-3-(5-fluoro-3-(trifluoromethyl)pyridin-2-yl)-5-((2-imino-3-methyl-2,3-dihydro-1H-imidazol-1-yl)methyl)benzamide]",180 nM
16,"Cc1cc(-c2cc(CN3CCCC3=N)cc(C(=O)NCc3ccc(Cl)c(Cl)c3)c2)c(C)cc1F [Example 332, N-(3,4-Dichlorobenzyl)-4′-fluoro-5-((2-iminopyrrolidin-1-yl)methyl)-2′,5′-dimethyl-[1,1′-biphenyl]-3-carboxamide]",1400 nM
17,"Cc1cc([C@H](C)NC(=O)c2cc(Cn3ccoc3=N)cc(-c3ccc(F)cc3C)c2)ccc1F [Example 230, (S)-4′-Fluoro-N-(1-(4-fluoro-3-methylphenyl)ethyl)-5-((2-iminooxazol-3(2H)-yl)methyl)-2′-methyl-[1,1′-biphenyl]-3-carboxamide]",640 nM
18,"Cc1cc([C@H](NC(=O)c2cc(Cn3ccn(C)c3=N)cc(-c3ccc(F)cc3C)c2)C(F)(F)F)ccc1F [Example 45, (S)-4′-fluoro-5-((2-imino-3-methyl-2,3-dihydro-1H-imidazol-1-yl)methyl)-2′-methyl-N-(2,2,2-trifluoro-1-(4-fluor-3-methylphenyl)ethyl)-[1,1′-biphenyl]-3-carboxamide]",1800 nM
19,"Cc1cc([C@H](C)NC(=O)c2cc(Cn3ccn(C)c3=N)cc(-c3ccc(F)cc3C)c2)ccc1F [Example 30, (S)-4′-Fluoro-N-(1-(4-fluoro-3-methylphenyl)ethyl)-5-((2-imino-3-methyl-2,3-dihydro-1H-imidazol-1-yl)methyl)-2′-methyl-[1,1′-biphenyl]-3-carboxamide]",100 nM
20,"Cc1cc(CNC(=O)c2cc(Cn3ccn(C)c3=N)cc(-c3cccnc3C(F)(F)F)c2)ccc1Cl [Example 76, N-(4-Chloro-3-methylbenzyl)-3-((2-imin-3-methyl-2,3-dihydro-1H-imidazol-1-yl)methyl)-5-(2-(trifluoromethyl)pyridin-3-yl)benzamide]",260 nM
21,"Cc1cc(CNC(=O)c2cc(Cn3ccn(C)c3=N)cc(-c3ncc(F)cc3C)c2)ccc1Cl [Example 70, N-(4-Chloro-3-methylbenzyl)-3-(5-fluoro-3-methylpyridin-2-yl)-5-((2-imino-3-methyl-2,3-dihydro-1H-imidazol-1-yl)methyl)benzamide]",2400 nM
22,"Cc1cc([C@@H](NC(=O)c2cc(Cn3ccn(C)c3=N)cc(-c3ccnn3C(C)C)c2)C2CC2)ccc1F [Example 102, (S)—N-(Cyclopropyl(4-fluoro-3-methylphenyl)methyl)-3-((2-imino-3-methyl-2,3-dihydro-1H-imidazol-1-yl)methyl)-5-(1-isopropyl-1H-pyrazol-5-yl)benzamide]",2160 nM
23,"Cc1cc([C@@H](NC(=O)c2cc(Cn3ccoc3=N)cc(-c3cccnc3C(F)(F)F)c2)C2CC2)ccc1F [Example 243, (S)—N-(Cyclopropyl(4-fluoro-3-methylphenyl)methyl)-3-((2-iminooxazol-3(2H)-yl)methyl)-5-(2-(trifluoromethyl)pyridin-3-yl)benzamide]",< 100 nM
24,"Cc1cc([C@@H](NC(=O)c2cc(Cn3ccoc3=N)cc(-c3ccc(F)cc3C)c2)C2CC2)ccc1F [Example 232, (S)—N-(Cyclopropyl(4-fluoro-3-methylphenyl)methyl)-4′-fluoro-5-((2-iminooxazol-3(2H)-yl)methyl)-2′-methyl-[1,1′-biphenyl]-3-carboxamide]",210 nM
25,"Cc1cc([C@H](C)NC(=O)c2cc(Cn3ccoc3=N)cc(-c3ccc(F)cc3C)c2)ccc1Cl [Example 234, (S)—N-(1-(4-Chloro-3-methylphenyl)ethyl)-4′-fluoro-5-((2-iminooxazol-3(2H)-yl)methyl)-2′-methyl-[1,1′-biphenyl]-3-carboxamide]",870 nM

# Molecular target: WDR5 (Homo sapiens (Human), UniProt P61964)
# Assay: TR-FRET binding assay (displacement of 10mer-Thr-FAM probe from WDR5)
# Settings: read-out: Ki for Inhibition of WDR5 by TR-FRET assay; TR-FRET, 10mer-Thr-FAM probe, WDR5-His tag 2 nM, pH 7.0
row,SMILES,pKi
1,"Cc1[nH]c(=O)ccc1-c1cc(Cn2ccn(C)c2=N)cc(C(=O)NCc2ccc(Cl)c(Cl)c2)c1 [Example 112, N-(3,4-Cichlorobenzyl)-3-((2-imino-3-methyl-2,3-dihydro-1-imidazol-1-yl)methyl)-5-(2-methyl-6-oxo-1,6-dihydropyridin-3-yl)benzamide]",7.54
2,"Cn1ccn(Cc2cc(OC(F)(F)F)cc(C(=O)N[C@@H](CC(=O)O)c3cccc(C(F)(F)F)c3)c2)c1=N [Example 146, (S)-3-(3-((2-Imino-3-methyl-2,3-dihydro-1H-imidazol-1-yl)methyl)-5-(trifluoromethoxy)benzamido)-3-(3-(trifluoromethyl)phenyl)propanoic acid]",8.00
